Laboratory results taken from publication PMC12333940, “A prometabolite strategy inhibits cardiometabolic disease in an ApoE^–/– murine model of atherosclerosis” (JCI Insight, 2025).
Values joined by “and” are separate entries in the source; they are usually repeats but may differ in a detail not shown here. Equal entries are not always repeated.

What was measured:
ApoE^–/– mice on an HFD = assay: Flow cytometry of the aorta; format: in vivo, mouse; parameters: Aorta Flow CD11b+F480+ / Aorta Flow CD11b+Ly6Chi: unit not given here
Text: SerBut water was pH adjusted using 10 M NaOH to a final pH of 7.4. […] After 6 weeks, mice were euthanized. […] The liver was harvested and part was homogenized in tissue protein extraction reagent buffer (Invitrogen, 78510) supplemented with protease inhibitor mini tablets (Thermo Fisher Scientific, PIA32955) for Western blotting and qPCR. […] The heart with the ascending and descending aorta to the diaphragm was harvested. The perivascular adipose tissue was carefully removed by microdissection while keeping the adventitia intact. […] After 45 minutes of digestion at 37°C with orbital shaking, aortas were passed through a 70 μm cell strainer, rinsed, pelleted, and plated into a U-bottom 96-well microplate for staining. […] Cells were washed in PBS supplemented with 2% FBS (FACS buffer) and stained for 30 minutes on ice with surface antibodies at a 1:200 dilution in a 1:1 mixture of FACS buffer and Brilliant Stain Buffer (BD Biosciences). Cells were washed with FACS buffer and PBS and fixed with 2% paraformaldehyde on ice for 20 minutes. Cells were washed twice with PBS and resuspended in FACS buffer. Precision count beads (BioLegend) were used to determine absolute cell counts. In this study, antibodies used included those against CD16/CD32 (BioLegend, clone 93, catalog 101302), CCR2 (PE; […] BD Biosciences, clone HL3, catalog 558079, BD Biosciences), […] (APC; […] BD Biosciences, clone 30-F11, catalog 564225), F4/80 (BUV496; BD Biosciences, clone T45-2342, catalog 750644), […].5; BioLegend, clone M5/114.15.2, catalog 107626), Ly-6C (APC-Cy7; […]

[1] = Biodistribution of free butyrate in intestinal tissue and contents, C57BL/6 mice; format: in vivo; settings: C57BL/6, normal chow; 3 hr after single gavage
Text: NaBut is limited in its translation by butyrate’s rapid consumption by colonocytes as a primary energy source in the distal gut. We propose that the enhanced biodistribution of free, active butyrate (following cleavage from serine) in SerBut-treated mice is due to small intestinal escape from the gut via amino acid transporters. To probe this hypothesis, we repeated the experiment and analyzed the biodistribution of free active butyrate in distinct sections of the intestinal tissue and the intestinal contents (Figure 2, K and L, and Supplemental Figure 2). Because neither ApoE^–/– nor HFD feeding would be expected to change amino acid receptor expression or function in the intestine, this was performed in C57BL/6 mice on a normal diet. […] We saw no increase in butyrate in the colon tissue (Figure 2P).
Samples were prepared and derivatized as described previously ([28]). […] The internal standard, 4-methylvaleric acid, was added.
Injection volume: 5.0 μL. Flow rate: 0.5 mL/min.

RAW 264.7 macrophages = assay: Flow cytometry of iNOS, CD80, CD86 in LPS-stimulated RAW 264.7; format: cell-based; settings: for CD80 MFI / iNOS MFI: then LPS 6 h; for CD80+ % Live / CD86+ % Live / iNOS+ %Live: listed as NB;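 as to CD80 MFI: LPS 200 ng/mL for 6 h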;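 as to iNOS MFI: LPS 200 ng/mL for 6 h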
Protocol: RAW 264.7 (ATCC, TIB-71) macrophages were cultured at 37°C and 5% CO2 in DMEM (Gibco) supplemented with 1 mM HEPES, 1 mM sodium pyruvate, 10% FBS, and penicillin/streptomycin. Cells were plated in round-bottom 96-well plates at 100,000 cells per well and incubated with different concentrations of either NaBut or SerBut (0.15–12 mM) for 24 hours. […] The cell culture supernatant was collected and analyzed by LEGENDPlex to analyze the concentrations of cytokines (BioLegend). Cell phenotype was analyzed using flow cytometry (Cytek Aurora).
Flow cytometry was performed using a BD LSRFortessa or a Cytek Aurora full-spectrum cytometer. Data were analyzed using FlowJo version 10.8.0. eFluor 780 Viability Dye (Invitrogen, 65-0865-14) and antibodies against the following markers were used in the RAW 264.7 macrophage in vitro studies: CD86 (BV421; BD Horizon, catalog 564198), CD80 (BC650; BioLegend, clone 16-10A1, catalog 104732), and iNOS (APC; Invitrogen, clone CXNFT, catalog 17-5920-9). Live/Dead Blue (Invitrogen, 123105A) and antibodies against the following markers were used in the atherosclerosis mouse models: F4/80 (FITC; BioLegend, clone BM8, catalog 123108), CD3e (BV605; BD Biosciences, clone 145-2C11, catalog 563565), CD4 (BUV496; BD Biosciences, clone GK 1.5, catalog 612952), RORγt (AF647; BD Biosciences, clone Q31-378, catalog 562682), FoxP3 (AF488, BD Biosciences, clone MF23, catalog 560403), CCR2 (PE; R&D Systems, catalog FAB5538P), Ly6C (APC-Cy7; BioLegend, catalog 128026, clone HK1.4), Ly6G (AF488; BioLegend, catalog 127626), CD8 (APC-Cy7; BioLegend, clone 53-6.7, catalog 100714), CD45 (BUV805; Invitrogen, clone 30-F11, catalog 368-0451-82), and CD25 (PerCP-Cy5.5; BioLegend, clone PC61, catalog 102030).

[2] = 0.45 mM, 12 Hour LPS stim after Butyrate treament
[3] = 0.45 mM, 12 hour LPS stim before butyrate treatment
[4] = 1.3 mM, 12 Hour LPS stim after Butyrate treament
[5] = 1.3 mM, 12 hour LPS stim before butyrate treatment

SMILES: CCCC(=O)[O-].[Na+] [NaBut, sodium butyrate, reference compound]
- CD45^+ total leukocytes, CD11b^+ monocytes and CCR2^+CD11b^+ monocytes in the aorta (ApoE^–/– mice on an HFD; 6 weeks, compared with control groups): did not
- CD11c^+MHCII^hi dendritic cells, CD11b^+F480^+ macrophages and CD19^+ B cells in the aorta (ApoE^–/– mice on an HFD; 6 weeks, compared with water controls): significantly reduced
- Aorta Flow B cell Count (ApoE^–/– mice on an HFD; individual mice): 315.036 and 240.601 and 72.6582 and 149.307 and 158.07 and 295.152 and 181.142 and 268.448 and 139.825 and 307.858
- Aorta Flow CD11b+F480+ (ApoE^–/– mice on an HFD; individual mice): 25.0597 and 7.5188 and 3.353 and 10.7501 and 8.319 and 26.3753 and 5.998 and 6.129 and 4.994 and 11.9789
- Aorta Flow CD11b+Ly6Chi (ApoE^–/– mice on an HFD; individual mice): 10.7965 and 20.8384 and 26.2172 and 17.9684 and 39.3795 and 20.0501 and 6.707 and 17.9169 and 5.942 and 82.8937
- Aorta Flow T Cell Count (ApoE^–/– mice on an HFD; individual mice): 829.356 and 329.574 and 100.604 and 316.531 and 316.14 and 663.15 and 236.324 and 566.315 and 510.612 and 977.48
- Aorta Flow CD11b+ Count (ApoE^–/– mice on an HFD; individual mice, experiment 2): 159.148 and 69.3047 and 197.085 and 244.83 and 668.174 and 122.361 and 438.833 and 237.203 and 489.938 and 511.933
- Aorta Flow CD11b+CCR2+ (ApoE^–/– mice on an HFD; individual mice, experiment 2): 22.5564 and 10.0604 and 29.8614 and 43.9743 and 133.132 and 27.5912 and 84.5795 and 57.4282 and 142.549 and 96.6587
- Aorta Flow CD45 Count (ApoE^–/– mice on an HFD; individual mice, experiment 2): 1122.81 and 480.662 and 1340.18 and 1250.3 and 2283.35 and 857.726 and 1975.97 and 1910.11 and 5505.51 and 4110.98
- Aorta Flow CD11c+MHCIIhi (ApoE^–/– mice on an HFD; individual mice, cell count): 16.2907 and 5.589 and 14.3335 and 20.2044 and 75.358 and 13.1958 and 30.6448 and 26.2172 and 32.3431 and 60.8592
- free butyrate, Colon Contents [1]: 384.57 µg/g
- free butyrate, Lower SI Contents [1]: 41.6523 µg/g and 45.1024 µg/g and 60.4329 µg/g and 68.0864 µg/g
- CD80 MFI (RAW 264.7 macrophages; 0.15 mM 24 h): 22618 and 22070 and 22276
- iNOS MFI (RAW 264.7 macrophages; 0.15 mM 24 h): 132178 and 120454 and 127565
- CD80 MFI (RAW 264.7 macrophages; 0.45 mM 24 h): 22987 and 22543 and 22840
- iNOS MFI (RAW 264.7 macrophages; 0.45 mM 24 h): 139940 and 135604 and 131383
- CD80+ % Live (RAW 264.7 macrophages; [2]): 31.4% and 45.9% and 36.7%
- CD86+ % Live (RAW 264.7 macrophages; [2]): 10.9% and 12.8% and 11.6%
- iNOS+ %Live (RAW 264.7 macrophages; [2]): 72.8% and 94.5% and 85.8%
- CD80+ % Live (RAW 264.7 macrophages; [3]): 55.4% and 59.7% and 52.7%
- CD86+ % Live (RAW 264.7 macrophages; [3]): 16.4% and 16% and 15.5%
- iNOS+ %Live (RAW 264.7 macrophages; [3]): 39.7% and 50% and 39.3%
- CD80 MFI (RAW 264.7 macrophages; 1.3 mM 24 h): 22932 and 22915 and 22360
- iNOS MFI (RAW 264.7 macrophages; 1.3 mM 24 h): 123416 and 155157 and 124806
- CD80+ % Live (RAW 264.7 macrophages; [4]): 40.8% and 54.3% and 32.8%
- CD86+ % Live (RAW 264.7 macrophages; [4]): 22.7% and 26% and 18.7%
- iNOS+ %Live (RAW 264.7 macrophages; [4]): 66.2% and 87.1% and 52%
- CD80+ % Live (RAW 264.7 macrophages; [5]): 47.8% and 46.8% and 51.4%
- CD86+ % Live (RAW 264.7 macrophages; [5]): 16.7% and 17.4% and 18.3%
- iNOS+ %Live (RAW 264.7 macrophages; [5]): 31.6% and 29.4% and 31.8%
